Literature values, collected in patent publication US20060287318A1, “Method for treating glaucoma III B” (priority 2000, published 2006).

Legend:
[1] = literature description of a compound series
Aged Rhesus monkeys = conditions: drug treated vs. control eye; baseline and pilocarpine-stimulated conditions; reported in the concurrently filed application "Methods for Treating Glaucoma I"
Rhesus monkeys = conditions: accommodative responses to i.m. pilocarpine; reported in the concurrently filed application "Methods for Treating Glaucoma I"

SMILES | glucose lowering effect [1] | improvement in ophthalmologic function (fluid outflow facility) (Aged Rhesus monkeys) | improvement in accommodation (Rhesus monkeys)
Cc1ccc(C(=O)C[n+]2ccccc2)cc1.[Cl-] [1-[2-(4-methylphenyl)-2-oxoethyl]-pyridinium chloride] | inactive | – | –
Cc1sc[n+](CC(=O)c2ccccc2)c1C.[Cl-] [4,5-dimethyl-3-(2-oxoethyl-phenethyl)thiazolium chloride] | – | improvement has been illustrated | Improvement in accommodation has been illustrated
